Assay results published in PMC8878464, “Fenchone Derivatives as a Novel Class of CB2 Selective Ligands: Design, Synthesis, X-ray Structure and Therapeutic Potential” (Molecules, 2022).
“And” between values parts separate entries of the source, which are not always exact repeats. Equal values may be shown once. “Also recorded” adds a separate entry of the source. Read-outs that look alike come from different tables or passages of the source.

Tests used:
[1] = biological target: T1, human CB1R (hCB1R) (Homo sapiens, UniProt P21554); assay: [3H]CP-55,940 competition displacement binding assay, hCB1R membranes
T1 construct: purchased Charles River A317
T1 sequence (P21554 whole entry): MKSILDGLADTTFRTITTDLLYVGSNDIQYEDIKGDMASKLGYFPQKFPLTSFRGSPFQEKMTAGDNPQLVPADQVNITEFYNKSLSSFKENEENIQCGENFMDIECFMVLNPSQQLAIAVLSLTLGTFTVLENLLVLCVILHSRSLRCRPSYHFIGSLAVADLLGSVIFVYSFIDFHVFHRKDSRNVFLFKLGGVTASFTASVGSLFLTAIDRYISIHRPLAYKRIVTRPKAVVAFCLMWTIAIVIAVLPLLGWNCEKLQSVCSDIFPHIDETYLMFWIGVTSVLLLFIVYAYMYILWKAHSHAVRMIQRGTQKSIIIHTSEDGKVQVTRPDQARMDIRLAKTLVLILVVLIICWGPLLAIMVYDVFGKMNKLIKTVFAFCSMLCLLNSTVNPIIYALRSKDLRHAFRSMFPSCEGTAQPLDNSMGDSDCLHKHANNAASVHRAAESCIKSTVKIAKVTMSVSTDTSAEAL
Description: (§1) The compounds were further characterized using a radioligand binding assay to determine their affinities for CB1R and CB2R based on each test compound’s ability to displace the radiolabeled CB1R/CB2R agonist CP-55,940 from membranes of cells expressing the human CB1R and CB2R [24].
(§2) Membranes from cells expressing hCB1R and hCB2R were purchased from Charles River, (Cat#A317 and A318, respectively; OH, USA). Solutions of test compounds ranging from 0.1 nM to 10 mM were prepared in DMSO. The desired amount of membrane preparation was diluted with ice-cold assay buffer (50 mM Tris-HCl, 2.5 mM EDTA, 5 mM MgCl2, 0.1% BSA, pH 7.4) and was vortexed. […] The assays were incubated for 90 min at 30 °C and then immediately filtered on WHATMAN GF/B Filter Paper (Fired) using a Brandel M-24R Harvester followed by six washes with ice cold wash buffer (50 mM Tris-HCl, 2.5 mM EDTA, 5 mM MgCl2, 0.1% BSA, pH 7.4). Radioactivity was detected by adding the Filter Paper directly to the ULTIMA GOLD scintillation cocktail (PerkinElmer, Waltham, MA, USA), incubation at 20 °C for 60 min and then counted using a Tri-Carb 4910TR liquid scintillation counter (PerkinElmer, Waltham, MA, USA).

[2] = biological target: human CB2R (hCB2R) (Homo sapiens, UniProt P34972); assay: [3H]CP-55,940 competition displacement binding assay, hCB2R membranes
Chain of human CB2R (hCB2R) (P34972 whole entry): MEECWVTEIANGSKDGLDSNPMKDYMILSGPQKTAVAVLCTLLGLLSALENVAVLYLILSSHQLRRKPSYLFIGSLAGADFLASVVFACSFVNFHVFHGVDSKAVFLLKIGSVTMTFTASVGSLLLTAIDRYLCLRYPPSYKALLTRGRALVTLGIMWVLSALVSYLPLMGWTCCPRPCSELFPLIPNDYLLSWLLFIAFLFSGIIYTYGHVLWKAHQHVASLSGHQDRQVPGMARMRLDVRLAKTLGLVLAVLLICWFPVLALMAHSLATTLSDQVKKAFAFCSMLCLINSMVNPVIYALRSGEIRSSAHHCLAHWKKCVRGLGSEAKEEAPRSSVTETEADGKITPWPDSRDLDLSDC
Description: as §1, §2
Each curve represents the mean of three experiments performed in triplicate.

[3] = biological target: T2, hCB2R (Homo sapiens, UniProt P34972); assay: [35S]GTPγS binding assay at hCB2R; assay type: biochemical; settings: for functional activity at hCB2R (agonist / antagonist / inverse agonist): [35S]GTPγS binding; for EC50: increase in [35S]GTPγS binding to hCB2R, two independent experiments in triplicate
T2 construct: purchased Charles River A318; host or cells: CHO-K1 cells
T2 sequence (P34972 whole entry): as above
Description: The method used for measuring agonist-stimulated binding of [^35S]GTPγS was based on a described protocol. Membranes (5 μg protein) were incubated in GTPγS assay buffer (50 mM Tris HCl (pH 7.4), 0.2 mM EGTA, 9 mM MgCl2, 150 mM NaCl, 1 mg/mL BSA) containing 100 μM GDP, 0.05 nM [^35S]GTPγS and test compounds at various concentrations. Vacuum filtration was used to separate bound ligand from free ligand. We used 10 μM GTPS to determine nonspecific binding. Basal binding was assayed in the absence of the ligand and in the presence of GDP.
Each symbol represents the mean percentage increase in [^35S]GTPγS binding ± SE.

[4] = system: zymosan-induced paw inflammation; assay: Zymosan-induced hind paw swelling (oedema) in mice; assay type: in vivo; settings: 6 h after 60 μg zymosan paw injection
[5] = system: TNF-α; assay: Serum TNF-α (ELISA) after zymosan injection in mice; assay type: in vivo; settings: 24 h after zymosan
Description: Control mice were injected with vehicle.
A mouse TNFα ELISA kit was used according to the manufacturer’s instructions (R&D Systems, Minneapolis, MN, USA).

[6] = system: zymosan-induced hyperalgesia; assay: von Frey monofilament pain assay in zymosan-injected mice; assay type: in vivo; settings: 15 and 25 mg/kg ip, after 6 h, p < 0.01
Description: We injected 40 μL of 1.5% (w/v) zymosan A in 0.9% saline into the right hind paw of the mice to induce inflammation. […] Control mice were injected with vehicle. Paw swelling and pain perception were measured after 2, 6 and 24 h.

[7] = displacement of [3H]CP-55,940, membranes of CHO-K1 cells expressing human CB2R, read-out: Ki (nM) hCB2R
[8] = maximal effect as percentage of HU-308 response at 1 µM

Molecule | Ki [2, 7] | Ki ([1]; read-out: Ki (nM) hCB1R) [nM] | functional activity at hCB2R (agonist / antagonist / inverse agonist) [3] | EC50 [3] [nM] | also measured
2-(2′-Methoxy-5′-octylphenyl)-1,3,3-trimethylbicyclo[2.2.1]heptan-2-ol [Compound 3g] | – | – | – | – | Ki ([1]; displacement of [3H]CP-55,940, class word NB, read-out: Ki (nM) hCB1R): > 10000 nM
CCCCCc1cc(OC)c(C2(O)C3(C)CCC(C3)C2(C)C)c(OC)c1 (stereo not shown) [Compound 1a, 2-(2′,6′-Dimethoxy-4′-pentylphenyl)-1,3,3-trimethylbicyclo[2.2.1]heptan-2-ol] | 47.7 nM | > 10000 | – | – | inhibition of [3H]CP-55,940 binding to hCB1R ([1]; result in words): no measurable inhibition
CCCCCc1cc(OC)c(C2(O)C3(C)CCC(C3)C2(C)C)c(OC)c1 (stereo not shown) [Compound 1b, 2-(2′,6′-Dimethoxy-4′-pentylphenyl)-1,3,3-trimethylbicyclo[2.2.1]heptan-2-ol] | 14.4 nM | – | agonist | 11.6 | E(max)% [3]: 65.1%; reduction in swelling ([4]; 25 mg/kg ip): 54%; inhibition of TNF-α serum levels ([5]; 25 mg/kg ip): 39%
CCCCCCC(C)(C)c1cc(OC)c(C2(O)C3(C)CCC(C3)C2(C)C)c(OC)c1 (stereo not shown) [Compound 1c, 2-(2′,6′-Dimethoxy-4′-(2″-methyloctan-2″-yl)phenyl)-1,3,3-trimethylbicyclo[2.2.1]heptan-2-ol] | 56.8 nM | > 10000 | agonist | 121 | –
CCCCCCC(C)(C)c1cc(OC)c(C2(O)C3(C)CCC(C3)C2(C)C)c(OC)c1 (stereo not shown) [Compound 1d, 2-(2′,6′-Dimethoxy-4′-(2″-methyloctan-2″-yl)phenyl)-1,3,3-trimethylbicyclo[2.2.1]heptan-2-ol] | – | – | – | 2.59 | Ki ([2]; Ki (nM) hCB2R): 3.51 nM; E(max)% [3, 8]: 89.6%; reduction in swelling ([4]; 15 mg/kg ip): 30%; reduction in swelling ([4]; 25 mg/kg ip): 54%; anti-nociceptive effect (paw withdrawal threshold, von Frey) [6]: strong anti-nociceptive effects; inhibition of TNF-α serum levels ([5]; 15 mg/kg ip): 26%; inhibition of TNF-α serum levels ([5]; 25 mg/kg ip): 40%
COc1cc(C)cc(OC)c1C1(O)C2(C)CCC(C2)C1(C)C (stereo not shown) [Compound 1e, 2-(2′,6′-Dimethoxy-4′-methylphenyl)-1,3,3-trimethylbicyclo[2.2.1]heptan-2-ol] | – | > 10000 | – | – | Ki ([2]; displacement of [3H]CP-55,940, value given in µM, read-out: Ki (nM) hCB2R): > 10000 nM
COc1cc(C)cc(OC)c1C1(O)C2(C)CCC(C2)C1(C)C (stereo not shown) [Compound 1f, 2-(2′,6′-Dimethoxy-4′-methylphenyl)-1,3,3-trimethylbicyclo[2.2.1]heptan-2-ol] | 233 nM | – | – | – | –
CCCCCCc1ccc(OC)c(C2(O)C3(C)CCC(C3)C2(C)C)c1OC (stereo not shown) [Compound 2a, 2-(3′-Hexyl-2′,6′-dimethoxyphenyl)-1,3,3-trimethylbicyclo[2.2.1]heptan-2-ol] | 224 nM and 223 nM | > 10000 | – | – | –
CCCCCCc1ccc(OC)c(C2(O)C3(C)CCC(C3)C2(C)C)c1OC (stereo not shown) [Compound 2b, 2-(3′-Hexyl-2′,6′-dimethoxyphenyl)-1,3,3-trimethylbicyclo[2.2.1]heptan-2-ol] | 73.4 nM | – | weakly stimulated; also recorded: agonist | 1940 | E(max)% [3]: 46.2%
CCCc1ccc(OC)c(C2(O)C3(C)CCC(C3)C2(C)C)c1 (stereo not shown) [Compound 3a, 2-(2′-Methoxy-5′-propylphenyl)-1,3,3-trimethylbicyclo[2.2.1]heptan-2-ol] | 1010 nM | > 10000 | – | – | –
CCCc1ccc(OC)c(C2(O)C3(C)CCC(C3)C2(C)C)c1 (stereo not shown) [Compound 3b, 2-(2′-Methoxy-5′-propylphenyl)-1,3,3-trimethylbicyclo[2.2.1]heptan-2-ol] | 610 nM | – | – | – | –
CCCCCc1ccc(OC)c(C2(O)C3(C)CCC(C3)C2(C)C)c1 (stereo not shown) [Compound 3c, 2-(2′-Methoxy-5′-pentylphenyl)-1,3,3-trimethylbicyclo[2.2.1]heptan-2-ol] | 444 nM | > 10000 | – | – | –
CCCCCc1ccc(OC)c(C2(O)C3(C)CCC(C3)C2(C)C)c1 (stereo not shown) [Compound 3d, 2-(2′-Methoxy-5′-pentylphenyl)-1,3,3-trimethylbicyclo[2.2.1]heptan-2-ol] | 834 nM | – | – | – | –
CCC(C)(C)c1ccc(OC)c(C2(O)C3(C)CCC(C3)C2(C)C)c1 (stereo not shown) [Compound 3e, 2-(2′-Methoxy-5′-(tert-pentyl)phenyl)-1,3,3-trimethylbicyclo[2.2.1] heptan-2-ol] | 2870 nM | > 10000 | – | – | –
CCC(C)(C)c1ccc(OC)c(C2(O)C3(C)CCC(C3)C2(C)C)c1 (stereo not shown) [Compound 3f, 2-(2′-Methoxy-5′-(tert-pentyl)phenyl)-1,3,3-trimethylbicyclo[2.2.1] heptan-2-ol] | 1450 nM | – | – | – | –
CCCCCCCCc1ccc(OC)c(C2(O)C3(C)CCC(C3)C2(C)C)c1 (stereo not shown) [Compound 3h, 2-(2′-Methoxy-5′-octylphenyl)-1,3,3-trimethylbicyclo[2.2.1]heptan-2-ol] | – | > 10000 | – | – | –
CCCCCc1cc(OC)c(C2(O)C3(C)CCC(C3)C2(C)C)c(OC)c1F (stereo not shown) [Compound 4a, 2-(3′-Fluoro-2′,6′-dimethoxy-4′-pentylphenyl)-1,3,3-trimethylbicyclo[2.2.1]heptan-2-ol] | 155 nM | > 10000 | – | – | –
CCCCCc1cc(OC)c(C2(O)C3(C)CCC(C3)C2(C)C)c(OC)c1F (stereo not shown) [Compound 4b, 2-(3′-Fluoro-2′,6′-dimethoxy-4′-pentylphenyl)-1,3,3-trimethylbicyclo[2.2.1]heptan-2-ol] | 28.3 nM | – | agonist | 305 | E(max)% [3, 8]: 54.2%
CCCCCCC(C)(C)c1cc(OC)c(C2(O)C3(C)CCC(C3)C2(C)C)c(OC)c1F (stereo not shown) [Compound 4c, 2-(3′-fluoro-2′,6′-dimethoxy-4′-(2″-methyloctan-2″-yl)phenyl)-1,3,3-trimethylbicyclo[2.2.1]heptan-2-ol] | 438 nM | > 10000 | – | – | –
CCCCCCC(C)(C)c1cc(OC)c(C2(O)C3(C)CCC(C3)C2(C)C)c(OC)c1F (stereo not shown) [Compound 4d, 2-(3′-fluoro-2′,6′-dimethoxy-4′-(2″-methyloctan-2″-yl)phenyl)-1,3,3-trimethylbicyclo[2.2.1]heptan-2-ol] | 56.6 nM | – | agonist | 104 | E(max)% [3, 8]: 119%
CCCCCc1cc(O)c(C2(O)C3(C)CCC(C3)C2(C)C)c(OC)c1 (stereo not shown) [Compound 5a, 2-(2′-hydroxy-6′-methoxy-4′-pentylphenyl)-1,3,3-trimethylbicyclo[2.2.1]heptan-2-ol] | 4980 nM | > 10000 | – | – | –
CCCCCc1cc(O)c(C2(O)C3(C)CCC(C3)C2(C)C)c(OC)c1 (stereo not shown) [Compound 5b, 2-(2′-hydroxy-6′-methoxy-4′-pentylphenyl)-1,3,3-trimethylbicyclo[2.2.1]heptan-2-ol] | 36.5 nM | – | agonist | 82.8 | E(max)% [3]: 69.5%
CCCCCCC(C)(C)c1cc(O)c(C2(O)C3(C)CCC(C3)C2(C)C)c(OC)c1 (stereo not shown) [Compound 5c, 2-(2′-Hydroxy-6′-methoxy-4′-(2″-methyloctan-2″-yl)phenyl)-1,3,3-trimethylbicyclo-[2.2.1]heptan-2-ol] | 107 nM | > 10000 | – | – | –
CCCCCCC(C)(C)c1cc(O)c(C2(O)C3(C)CCC(C3)C2(C)C)c(OC)c1 (stereo not shown) [Compound 5d, 2-(2′-Hydroxy-6′-methoxy-4′-(2″-methyloctan-2″-yl)phenyl)-1,3,3-trimethylbicyclo-[2.2.1]heptan-2-ol] | – | – | agonist | 14.8 | Ki ([2]; Ki (nM) hCB2R): 24.6 nM and 24.5 nM; E(max)% [3, 8]: 105%
CCCCCCC(C)(C)c1cc(OC)c([C@@H]2C=C(CO)[C@@H]3C[C@H]2C3(C)C)c(OC)c1 [HU-308, reference compound] | – | – | agonist | – | Ki [1]: > 10000 nM; E(max)% [3, 8]: 100%; reduction in swelling ([4]; 25 mg/kg ip): 20%; inhibition of TNF-α serum levels ([5]; 25 mg/kg ip): 28%
